Structures can show the parent of a compound that is named as a salt.

Experiment [1] deals with Scopolamine Induced Memory Deficit. Description: Dark Avoidance Assay (reversal of scopolamine induced memory deficit). The class given is in vivo. The conditions noted are these: mice, s.c., tested again 24 hours later. The procedure:
In this assay mice are tested for their ability to remember an unpleasant stimulus for a period of 24 hours. A mouse is placed in a chamber that contains a dark compartment; a strong incandescent light drives it to the dark compartment, where an electric shock is administered through metal plates on the floor. The animal is removed from the testing apparatus and tested again, 24 hours later, for the ability to remember the electric shock.
If scopolamine, an anticholinergic that is known to cause memory impairment, is administered before an animal's initial exposure to the test chamber, the animal re-enters the dark compartment shortly after being placed in the test chamber 24 hours later. This effect of scopolamine is blocked by an active test compound, resulting in a greater interval before re-entry into the dark compartment.
The results for an active compound are expressed as the percent of a group of animals in which the effect of scopolamine is blocked, as manifested by an increased interval between being placed in the test chamber and re-entering the dark compartment.
Results of this assay for some of the compounds of this invention and those for tacrine and pilocarpine (reference compounds) are presented in Table 2.

Experiment [2] deals with T1, Brain AChE (acetylcholinesterase, rat striatum) (Rattus norvegicus, UniProt P37136).
T1 construct: corpora striata dissected free, weighed and homogenized in 19 volumes; from tissue; host or cells: corpus striatum homogenate of male Wistar rats
T1 sequence (P37136 32-614): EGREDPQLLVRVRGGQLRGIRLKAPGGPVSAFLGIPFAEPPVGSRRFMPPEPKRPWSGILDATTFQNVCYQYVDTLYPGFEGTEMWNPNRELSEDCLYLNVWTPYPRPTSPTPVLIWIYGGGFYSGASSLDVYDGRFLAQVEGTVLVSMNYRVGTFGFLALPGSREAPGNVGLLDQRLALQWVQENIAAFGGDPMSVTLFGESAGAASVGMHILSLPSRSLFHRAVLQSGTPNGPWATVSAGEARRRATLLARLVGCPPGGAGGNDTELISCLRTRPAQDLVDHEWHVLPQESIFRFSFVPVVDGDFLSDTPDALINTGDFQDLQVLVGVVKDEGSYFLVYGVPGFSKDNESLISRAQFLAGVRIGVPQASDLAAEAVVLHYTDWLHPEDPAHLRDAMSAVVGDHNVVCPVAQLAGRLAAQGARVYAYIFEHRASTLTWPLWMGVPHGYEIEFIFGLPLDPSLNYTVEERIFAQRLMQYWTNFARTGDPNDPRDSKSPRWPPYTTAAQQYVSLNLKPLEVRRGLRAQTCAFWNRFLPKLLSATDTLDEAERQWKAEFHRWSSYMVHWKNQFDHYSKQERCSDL
In words: In vitro inhibition of acetylcholinesterase activity in rat striatum. Type of experiment: biochemical, rat (male Wistar). Particulars: read-out: Inhibitory Concentration, Brain AChE. The procedure:
Cholinesterases are found throughout the body, both in the brain and in serum. However, only brain acetylcholinesterase (AChE) distribution is correlated with central cholinergic innervation.
The method described below was used in this invention for assaying cholinesterase activity.
4. A 2 mM stock solution of the test drug is made up in a suitable solvent and q.s. to volume with 0.5 mM DTNB (reagent 3). Drugs are serially diluted (1:10) such that the final concentration (in cuvette) is 10^-4 M and screened for activity. If active, IC50 values are determined from the inhibitory activity of subsequent concentrations.
Male Wistar rats are decapitated, brains rapidly removed, corpora striata dissected free, weighed and homogenized in 19 volumes (approximately 7 mg protein/ml) of 0.05M phosphate buffer, pH 7.2 using a Potter-Elvehjem homogenizer. A 25 microliter aliquot of the homogenate is added to 1.0 milliter vehicle or various concentrations of the test drug and preincubated for 10 minutes at 37° C.
Enzyme activity is measured with the Beckman DU-50 spectrophotometer. This method can be used for IC50 determinations and for measuring kinetic constants.
Substrate concentration is 10 mM diluted 1:2 in assay yielding final concentration of 5 mM. DTNB concentration is 0.5 mM yielding 0.25 mM final concentration. [formula]
IC50 values are calculated from log-probit analysis.

As for `CC[C@@H]1C(=O)OC[C@@H]1Cc1cncn1C` [Pilocarpine, reference compound], the “% of Animals with Scopolamine Induced Memory Deficit Reversal” value in experiment [1] (5 mg/kg of body weight) turned out to be 23%. Regarding `O=C1c2cccc3c2C(CCC3)C1CC1CCN(Cc2ccccc2)CC1` (stereo not shown) [2-[(N-Benzylpiperidin-4-yl)methyl]-2a,3,4,5-tetrahydro-1(2H)-acenaphthylen-1-one hydrochloride], the IC50 in experiment [2] came to 1.02 µM.

Take `O=C1c2cccc3c2C(CCC3)C1CC1CCN(Cc2cccc(F)c2)CC1` (stereo not shown) [2-[[N-(3-Fluorobenzyl)piperidin-4-yl]methyl]-2a,3,4,5-tetrahydro-1(2H)-acenaphthylen-1-one hydrochloride]: the IC50 in experiment [2] worked out at 4.1 µM. Further, the “% of Animals with Scopolamine Induced Memory Deficit Reversal” value in experiment [1] (0.1 mg/kg of body weight) amounted to 20%.

For the origin of these results see patent publication US5106856A, “[(Arylalkylpiperidin-4-yl)methyl]-2a,3,4,5-tetrahydro- 1(2H)-acenaphthylen-1-ones and related compounds” (priority 1991, dated 1992).
